{"source": "patent US20260240772A1", "about": "(priority 2022, published 2026)", "key": {"[1]": {"system": "normal mice", "details": "subcutaneous injection 10 mg kg^−1; 5-30 min; FIG. 10B"}, "[2]": {"system": "normal mice", "details": "subcutaneous injection 10 mg kg^−1; 1 hour after injection; FIG. 10G"}}}
{"compound": "CN1CC[C@]23c4c5ccc(O)c4O[C@H]2[C@@H](O)C=C[C@H]3[C@H]1C5", "note": "[morphine single drug, morphine]", "values": [{"measurement": "heart rate compared with conditions before administration", "setting": "[1]", "value": "remarkably reduced"}, {"measurement": "number of fecal particles compared with the solvent group", "setting": "[2]", "value": "remarkably reduced"}]}
